Each structure is given as a SMILES string. Active and inactive are the calls of the source. The rule behind the calls is not given here. Where only a bound is given, the exact number is not on record here.

The test system of assay [1] is A-375. Kind of assay: Antiproliferative activity against human A375 cells after 48 hrs by MTT assay. As to conditions: A-375, 48 h. It is filed as functional, cell-based. For orientation: Tetrazolium dyes change colour on reduction, which living cells bring about.
For assay [2], the system named is MIA PaCa-2. Kind of assay: Antiproliferative activity against human MIAPaCa2 cells after 48 hrs by MTT assay. The assay is classed as functional, cell-based. As to conditions: MIA PaCa-2, 48 h.
Assay [3] relates to Caco-2. The assay can be described thus: Antiproliferative activity against human Caco2 cells after 48 hrs by MTT assay. As to conditions: Caco-2, 48 h. It is filed as functional, cell-based.
Assay [4] deals with A549. The assay can be described thus: Antiproliferative activity against human A549 cells after 48 hrs by MTT assay. It is filed as functional, cell-based. As to conditions: A549, 48 h.
For assay [5], the system named is PC-3. The assay can be described thus: Antiproliferative activity against human PC3 cells after 48 hrs by MTT assay. The assay is classed as functional, cell-based. Particulars: PC-3, 48 h.
The nature of assay [6]: Antiproliferative activity against human HPDEC after 48 hrs by MTT assay. It is filed as cell-based.
The subject of assay [7] is A-375. Kind of assay: Antiproliferative activity against human A375 cells assessed as reduction in cell viability at IC50 after 24 hrs by calcein AM staining based confocal microscopy. It is filed as functional.
For assay [8], the system named is MIA PaCa-2. Kind of assay: Antiproliferative activity against human MIAPaCa2 cells assessed as reduction in cell viability at IC50 after 24 hrs by calcein AM staining based confocal microscopy. The assay is classed as functional.
Assay [9] deals with A-375. The assay can be described thus: Antiproliferative activity against human A375 cells assessed as reduction in colony formation measured after 10 to 14 days by crystal violet staining based microscopic method. The assay is classed as functional, cell-based.
Assay [10] deals with MIA PaCa-2. The assay can be described thus: Antiproliferative activity against human MIAPaCa2 cells assessed as reduction in colony formation measured after 10 to 14 days by crystal violet staining based microscopic method. It is filed as functional, cell-based.
Assay [11] deals with MIA PaCa-2. Kind of assay: Cell cycle arrest in human MIAPaCa2 cells assessed as accumulation at G2/M phase at IC50 after 48 hrs by propidium iodide staining based flow cytometry. It is filed as functional.
Assay [12] concerns A-375. The assay can be described thus: Cell cycle arrest in human A375 cells assessed as accumulation at G2/M phase at IC50 after 48 hrs by propidium iodide staining based flow cytometry. The assay is classed as functional. In general terms: Flow cytometry measures light scatter and fluorescence of single cells or particles in a stream.
In assay [13] the test system is A-375. The assay can be described thus: Cell cycle arrest in human A375 cells assessed as decrease in G1 population at IC50 after 48 hrs by propidium iodide staining based flow cytometry. The assay is classed as functional.
Assay [14] deals with MIA PaCa-2. The assay can be described thus: Cell cycle arrest in human MIAPaCa2 cells assessed as decrease in G1 population at IC50 after 48 hrs by propidium iodide staining based flow cytometry. It is filed as functional.
Assay [15] relates to A-375. The assay can be described thus: Cell cycle arrest in human A375 cells assessed as accumulation at sub-G0/G1 phase at IC50 after 48 hrs by propidium iodide staining based flow cytometry. The assay is classed as functional.
The subject of assay [16] is MIA PaCa-2. The assay can be described thus: Cell cycle arrest in human MIAPaCa2 cells assessed as accumulation at sub-G0/G1 phase at IC50 after 48 hrs by propidium iodide staining based flow cytometry. It is filed as functional.

One may read the IC50 as the concentration that gives 50% inhibition. The low end stands for greater potency, the high end for weaker potency. For the compound `COc1ccc(C(=O)c2c(-c3ccccc3)sc3c2CCCC3)cc1`, the IC50 is 5.34 µM in [1]; 8.84 µM in [2]; 18.6 µM in assay [3]; 9.42 µM in assay [4]; 23.4 µM in assay [5]; 21.4 µM in [6].
`Cc1sc(C#Cc2ccccc2)c(C(=O)c2ccc([N+](=O)[O-])cc2)c1C`: the concentration for half-maximal inhibition (IC50) in assay [1] was found to be 21.2 µM; in assay [2], 21.9 µM; in [3], 25.1 µM; in assay [4], 19 µM; in [5], 33.4 µM.
As to `O=C(c1ccc([N+](=O)[O-])cc1)c1c(C#Cc2ccccc2)sc2c1CCCC2`, the 50% inhibitory concentration (IC50) is 0.81 µM in assay [1]; 3 µM in [2]; 4.52 µM in [3]; 2.8 µM in assay [4]; 12.3 µM in assay [5]; over 50 µM in assay [6]. For the same compound, the outcome in assay [7], in assay [8], in assay [9], in assay [10], in [11] and in assay [12] was Active. The result in [13], in assay [14], in assay [15] and in [16] was Active.
Consider `Cc1ccc(C#Cc2sc3c(c2C(=O)c2ccc([N+](=O)[O-])cc2)CCCC3)cc1`, for which the IC50 was found to be 13.1 µM in assay [1]; 16.4 µM in [2]; 34.2 µM in assay [3]; 30.1 µM in [4]; 21.4 µM in assay [5].
In the case of `O=C(c1ccc([N+](=O)[O-])cc1)c1c(-c2ccccc2)sc2c1CCCC2`, the IC50 in assay [1] came out at 20.5 µM; in assay [2], 13.2 µM; in assay [3] it was 28.1 µM; in assay [4], 24.2 µM; in assay [5] it was 14.6 µM.
With `O=C(c1ccc([N+](=O)[O-])cc1)c1c(-c2ccccc2)sc2c1CCCCC2`, the IC50 in assay [1] is 1.07 µM; in assay [2], 5.35 µM; in assay [3] it was 6.1 µM; in [4] it was 5.39 µM; in [5] it was 40.1 µM; in [6], over 50 µM. Further, the outcome in assay [7], in assay [8], in assay [9], in assay [10], in [11] and in assay [12] was Active. Moreover, the result in assay [13], in assay [14], in assay [15] and in assay [16] was Active.
Consider `Cc1ccc(C#Cc2sc(C)c(C)c2C(=O)c2ccccc2)cc1`, for which the IC50 in assay [1] is over 100 µM; in assay [2], 69.8 µM; in assay [3], over 100 µM; in assay [4], over 100 µM; in assay [5], 51.4 µM.
As to `COc1cc(C(=O)c2c(C#Cc3ccccc3)sc3c2CCCC3)cc(OC)c1OC`, the IC50 was 3.88 µM in [1]; 5.08 µM in assay [2]; 8.26 µM in [3]; 12.9 µM in [4]; 15.5 µM in assay [5]; over 50 µM in assay [6].
With `Cc1ccc(C#Cc2sc(C)c(C)c2C(=O)c2ccc([N+](=O)[O-])cc2)cc1`, the IC50 in assay [1] was 26.4 µM; in assay [2], 79 µM; in assay [3], 31.4 µM; in assay [4], over 100 µM; in assay [5] it was 40.6 µM.
The corresponding values for `Cc1ccc(C(=O)c2c(C#Cc3ccccc3)sc(C)c2C)cc1` are 43.2 µM, over 100 µM, over 100 µM, 39.5 µM and 25.4 µM.
In the same order, the values of `Cc1sc(-c2ccccc2)c(C(=O)c2ccc([N+](=O)[O-])cc2)c1C` are over 100 µM, 23.7 µM, 64.7 µM, 31 µM and over 100 µM.
`COc1ccc(C(=O)c2c(C#Cc3ccccc3)sc(C)c2C)cc1`: the IC50 came out at 9.35 µM in assay [1]; 29.4 µM in assay [2]; 18.3 µM in assay [3]; 13.6 µM in assay [4]; 21.4 µM in [5].
In the same order, the values of `Cc1ccc(C(=O)c2c(-c3ccccc3)sc(C)c2C)cc1` are 51.2 µM, over 100 µM, over 100 µM, over 100 µM and 26 µM.
As to `O=C(c1ccccc1)c1c(C#Cc2ccccc2)sc2c1CCCC2`, the IC50 was 4.63 µM in assay [1]; 8.48 µM in assay [2]; 14.8 µM in assay [3]; 20.2 µM in assay [4]; 23.1 µM in assay [5]; 18.9 µM in assay [6].
Turning to `O=C(c1ccccc1)c1c(-c2ccccc2)sc2c1CCCC2`, the IC50 in assay [1] came to 16.3 µM; in assay [2], 18.2 µM; in assay [3] it was 20.4 µM; in assay [4] it was 14 µM; in assay [5] it was 23.8 µM.
The corresponding values for `Cc1ccc(C#Cc2sc3c(c2C(=O)c2ccccc2)CCCC3)cc1` are over 100 µM, over 100 µM, over 100 µM, over 100 µM and over 100 µM.
The corresponding values for `COc1cc(C(=O)c2c(C#Cc3ccc(C)cc3)sc3c2CCCC3)cc(OC)c1OC` are 22.5 µM, 21.2 µM, 28.3 µM, 18.9 µM and 37.5 µM.
In the same order, the values of `Cc1ccc(C(=O)c2c(-c3ccccc3)sc3c2CCCC3)cc1` are 27 µM, 36.4 µM, 47.6 µM, 32.7 µM and 37.5 µM.
Turning to `Cc1ccc(C#Cc2sc3c(c2C(=O)c2ccc(C)cc2)CCCC3)cc1`, the IC50 worked out at 30.7 µM in assay [1]; 42 µM in assay [2]; 31.5 µM in assay [3]; 27.3 µM in assay [4]; 48.2 µM in assay [5].
In the same order, the values of `Cc1ccc(C(=O)c2c(C#Cc3ccccc3)sc3c2CCCC3)cc1` are 10.1 µM, 17.2 µM, 10.4 µM, 11.3 µM and 20.4 µM.
`Cc1ccc(C#Cc2sc(C)c(C)c2C(=O)c2ccc(C)cc2)cc1`: the IC50 is over 100 µM in assay [1]; over 100 µM in assay [2]; over 100 µM in [3]; 45.3 µM in assay [4]; over 100 µM in assay [5].
As for `COc1ccc(C(=O)c2c(C#Cc3ccccc3)sc3c2CCCC3)cc1`, the IC50 in assay [1] was determined as 1.9 µM; in [2], 35.2 µM; in assay [3], 16.8 µM; in assay [4], 8.14 µM; in [5], 14.5 µM; in [6], 35.6 µM.
As to `Cc1ccc(C(=O)c2c(-c3ccccc3)sc3c2CCCCC3)cc1`, the IC50 in assay [1] is 3.71 µM; in assay [2], 24.6 µM; in assay [3], 15.7 µM; in assay [4], 6.28 µM; in assay [5], 23.4 µM; in assay [6], 25.8 µM.
Consider `CC(=O)O[C@H]1C(=O)[C@@]2(C)[C@H]([C@H](OC(=O)c3ccccc3)[C@]3(O)C[C@H](OC(=O)[C@H](O)[C@@H](NC(=O)c4ccccc4)c4ccccc4)C(C)=C1C3(C)C)[C@]1(OC(C)=O)CO[C@@H]1C[C@@H]2O` [PACLITAXEL], for which the IC50 came to 0.68 µM in [1]; 2.5 µM in assay [2]; 2.8 µM in [3]; 0.4 µM in [4]; 1.9 µM in assay [5].
The corresponding values for `Cc1sc(-c2ccccc2)c(C(=O)c2ccccc2)c1C` are 31.1 µM, over 100 µM, 38 µM, 21.9 µM and 39.5 µM.
As for `Cc1sc(C#Cc2ccccc2)c(C(=O)c2ccccc2)c1C`, the half-inhibitory concentration (IC50) in assay [1] is 28 µM; in assay [2], 31.2 µM; in [3], 34.2 µM; in [4] it was 24 µM; in [5] it was 31.5 µM.
For the compound `COc1cc(C(=O)c2c(C#Cc3ccccc3)sc(C)c2C)cc(OC)c1OC`, the half-maximal inhibitory concentration (IC50) in assay [1] amounted to 1.17 µM; in [2], 4.32 µM; in [3], 7.49 µM; in assay [4], 6.51 µM; in assay [5], 6.49 µM; in assay [6], 36.1 µM.
For the compound `O=C(c1ccccc1)c1c(-c2ccccc2)sc2c1CCCCC2`, the IC50 came out at 7.72 µM in [1]; 12 µM in assay [2]; 18.1 µM in assay [3]; 15.8 µM in assay [4]; 22.1 µM in assay [5]; 14.6 µM in [6].

The values above are taken from ChEMBL document CHEMBL3994563 (Medchemcomm, 2016).
